Source: patent US10351548B2, “2-oxo-1,2-dihydropyridine-3-carboxamide compounds and their use as inhibitors of PDK1” (INTERNATIONAL SOCIETY FOR DRUG DEVELOPMENT S.R.L., priority 2015, dated 2019)
Like-named read-outs stand apart in the source and are kept apart here.

What was measured:
Assay in all cases: IB35 kinases profiling at 100 nM (ZLYTE)
Assay type in all cases: biochemical
CHEK1 (CHK1) = CHEK1 (CHK1) (Homo sapiens (Human), UniProt O14757); conditions: IB35 100 nM, ATP Km app
Excerpt: (§1) The results are reported below

ABL1 = ABL1 (Homo sapiens (Human), UniProt P00519); conditions: IB35 100 nM, ATP Km app
Excerpt: as §1

GSK3A (GSK3 alpha) = GSK3A (GSK3 alpha) (Homo sapiens (Human), UniProt P49840); conditions: IB35 100 nM, ATP Km app
Excerpt: as §1

CSNK1G1 (CK1 gamma 1) = CSNK1G1 (CK1 gamma 1) (Homo sapiens (Human), UniProt Q9HCP0); conditions: IB35 100 nM, ATP Km app
Excerpt: as §1

CSNK2A2 (CK2 alpha 2) = CSNK2A2 (CK2 alpha 2) (Homo sapiens (Human), UniProt P19784); conditions: IB35 100 nM, ATP Km app
Excerpt: as §1

PRKCB1 (PKC beta I) = PRKCB1 (PKC beta I) (Homo sapiens (Human), UniProt P05771); conditions: IB35 100 nM, ATP Km app
Excerpt: as §1

BTK = BTK (Homo sapiens (Human), UniProt Q06187); conditions: IB35 100 nM, ATP Km app
Excerpt: as §1

MAPK1 (ERK2) = MAPK1 (ERK2) (Homo sapiens (Human), UniProt P28482); conditions: IB35 100 nM, ATP Km app
Excerpt: as §1

MAPK3 (ERK1) = MAPK3 (ERK1) (Homo sapiens (Human), UniProt P27361); conditions: IB35 100 nM, ATP Km app
Excerpt: as §1

AMPK A1/B1/G1 = AMPK A1/B1/G1 (Homo sapiens (Human), UniProt Q13131); conditions: IB35 100 nM, ATP Km app
Excerpt: as §1

MARK1 (MARK) = MARK1 (MARK) (Homo sapiens (Human), UniProt Q9P0L2); conditions: IB35 100 nM, ATP Km app
Excerpt: as §1

AKT2 (PKB beta) = AKT2 (PKB beta) (Homo sapiens (Human), UniProt P31751); conditions: IB35 100 nM, ATP Km app
Excerpt: as §1

MAP2K1 (MEK1) = MAP2K1 (MEK1) (Homo sapiens (Human), UniProt Q02750); conditions: IB35 100 nM, ATP 100
Excerpt: as §1

AURKA (Aurora A) = AURKA (Aurora A) (Homo sapiens (Human), UniProt O14965); conditions: IB35 100 nM, ATP Km app
Excerpt: as §1

ROCK2 = ROCK2 (Homo sapiens (Human), UniProt O75116); conditions: IB35 100 nM, ATP Km app
Excerpt: as §1

AKT3 (PKB gamma) = AKT3 (PKB gamma) (Homo sapiens (Human), UniProt Q9Y243); conditions: IB35 100 nM, ATP Km app
Excerpt: as §1

GSK3B (GSK3 beta) = GSK3B (GSK3 beta) (Homo sapiens (Human), UniProt P49841); conditions: IB35 100 nM, ATP Km app
Excerpt: as §1

FRAP1 (mTOR) = FRAP1 (mTOR) (Homo sapiens (Human), UniProt P42345); conditions: IB35 100 nM, ATP Km app
Excerpt: as §1

CLK1 = CLK1 (Homo sapiens (Human), UniProt P49759); conditions: IB35 100 nM, ATP Km app
Excerpt: as §1

AMPK A2/B1/G1 = AMPK A2/B1/G1 (Homo sapiens (Human), UniProt P54646); conditions: IB35 100 nM, ATP Km app
Excerpt: as §1

CDK5/p25 = CDK5/p25 (Homo sapiens (Human), UniProt Q00535); conditions: IB35 100 nM, ATP Km app
Excerpt: as §1

PRKCZ (PKC zeta) = PRKCZ (PKC zeta) (Homo sapiens (Human), UniProt Q05513); conditions: IB35 100 nM, ATP Km app
Excerpt: as §1

CDK1/cyclin B = CDK1/cyclin B (Homo sapiens (Human), UniProt P06493); conditions: IB35 100 nM, ATP Km app
Excerpt: as §1

BRAF = BRAF (Homo sapiens (Human), UniProt P15056); conditions: IB35 100 nM, ATP 100
Excerpt: as §1

MAP2K2 (MEK2) = MAP2K2 (MEK2) (Homo sapiens (Human), UniProt P36507); conditions: IB35 100 nM, ATP 100
Excerpt: as §1

PRKCE (PKC epsilon) = PRKCE (PKC epsilon) (Homo sapiens (Human), UniProt Q02156); conditions: IB35 100 nM, ATP Km app
Excerpt: as §1

CDK2/cyclin A = CDK2/cyclin A (Homo sapiens (Human), UniProt P24941); conditions: IB35 100 nM, ATP Km app
Excerpt: as §1

MAP2K1 (MEK1), sequence (Q02750 whole entry, species assumed): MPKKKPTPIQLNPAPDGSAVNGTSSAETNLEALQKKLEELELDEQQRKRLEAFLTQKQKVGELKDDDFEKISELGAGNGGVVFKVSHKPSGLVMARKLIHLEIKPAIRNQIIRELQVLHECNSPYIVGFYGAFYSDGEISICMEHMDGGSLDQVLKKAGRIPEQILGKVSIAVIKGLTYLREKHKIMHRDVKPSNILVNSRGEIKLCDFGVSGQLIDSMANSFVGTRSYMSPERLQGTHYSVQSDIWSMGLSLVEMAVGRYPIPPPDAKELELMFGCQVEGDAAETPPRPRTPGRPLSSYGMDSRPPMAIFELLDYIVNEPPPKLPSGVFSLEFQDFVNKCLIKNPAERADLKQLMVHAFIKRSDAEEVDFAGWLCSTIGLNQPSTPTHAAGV
ROCK2, sequence (O75116 whole entry, species assumed): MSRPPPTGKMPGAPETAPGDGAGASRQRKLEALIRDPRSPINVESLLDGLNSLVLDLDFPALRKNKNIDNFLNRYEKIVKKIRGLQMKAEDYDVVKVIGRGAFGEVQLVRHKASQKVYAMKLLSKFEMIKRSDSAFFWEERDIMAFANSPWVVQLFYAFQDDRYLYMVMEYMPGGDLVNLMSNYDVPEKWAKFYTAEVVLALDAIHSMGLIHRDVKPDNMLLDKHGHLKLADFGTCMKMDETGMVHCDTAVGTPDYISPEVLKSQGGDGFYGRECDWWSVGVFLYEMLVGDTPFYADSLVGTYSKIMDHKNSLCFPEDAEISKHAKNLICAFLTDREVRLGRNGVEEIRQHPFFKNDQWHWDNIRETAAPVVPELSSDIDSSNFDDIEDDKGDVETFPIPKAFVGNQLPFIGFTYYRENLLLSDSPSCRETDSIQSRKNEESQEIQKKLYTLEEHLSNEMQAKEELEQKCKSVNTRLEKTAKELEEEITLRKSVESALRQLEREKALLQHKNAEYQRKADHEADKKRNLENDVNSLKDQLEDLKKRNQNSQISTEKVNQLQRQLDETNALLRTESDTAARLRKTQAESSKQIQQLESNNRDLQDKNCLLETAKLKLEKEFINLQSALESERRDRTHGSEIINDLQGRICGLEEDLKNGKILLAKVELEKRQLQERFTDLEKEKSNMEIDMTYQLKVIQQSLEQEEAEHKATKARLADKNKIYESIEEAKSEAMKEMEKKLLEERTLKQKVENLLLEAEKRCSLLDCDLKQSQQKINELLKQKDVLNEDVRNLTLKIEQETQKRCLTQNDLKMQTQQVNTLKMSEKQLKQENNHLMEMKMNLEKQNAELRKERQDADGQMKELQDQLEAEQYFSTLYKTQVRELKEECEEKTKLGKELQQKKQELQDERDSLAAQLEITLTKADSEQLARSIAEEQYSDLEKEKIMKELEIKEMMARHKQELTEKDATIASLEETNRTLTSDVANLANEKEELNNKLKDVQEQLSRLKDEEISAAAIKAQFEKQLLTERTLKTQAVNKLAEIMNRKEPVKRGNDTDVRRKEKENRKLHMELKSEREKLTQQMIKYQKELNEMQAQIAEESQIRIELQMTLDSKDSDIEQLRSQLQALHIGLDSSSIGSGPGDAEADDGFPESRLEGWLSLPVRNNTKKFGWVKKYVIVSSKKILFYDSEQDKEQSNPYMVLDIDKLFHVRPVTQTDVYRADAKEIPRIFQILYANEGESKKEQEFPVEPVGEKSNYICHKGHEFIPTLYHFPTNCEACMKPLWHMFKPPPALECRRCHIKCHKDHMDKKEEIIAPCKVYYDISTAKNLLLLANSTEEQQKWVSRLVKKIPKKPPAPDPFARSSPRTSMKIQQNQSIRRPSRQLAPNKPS
CDK1/cyclin B, sequence (P06493 whole entry): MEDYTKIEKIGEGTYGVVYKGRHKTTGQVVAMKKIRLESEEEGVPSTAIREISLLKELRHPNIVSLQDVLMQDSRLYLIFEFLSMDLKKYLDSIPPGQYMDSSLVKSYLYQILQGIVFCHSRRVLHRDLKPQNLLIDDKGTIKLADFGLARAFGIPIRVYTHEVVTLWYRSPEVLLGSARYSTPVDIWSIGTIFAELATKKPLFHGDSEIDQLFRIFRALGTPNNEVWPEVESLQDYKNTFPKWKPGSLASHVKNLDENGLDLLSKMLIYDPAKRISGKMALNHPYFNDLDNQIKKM
CDK1/cyclin B, sequence (P14635 whole entry partner): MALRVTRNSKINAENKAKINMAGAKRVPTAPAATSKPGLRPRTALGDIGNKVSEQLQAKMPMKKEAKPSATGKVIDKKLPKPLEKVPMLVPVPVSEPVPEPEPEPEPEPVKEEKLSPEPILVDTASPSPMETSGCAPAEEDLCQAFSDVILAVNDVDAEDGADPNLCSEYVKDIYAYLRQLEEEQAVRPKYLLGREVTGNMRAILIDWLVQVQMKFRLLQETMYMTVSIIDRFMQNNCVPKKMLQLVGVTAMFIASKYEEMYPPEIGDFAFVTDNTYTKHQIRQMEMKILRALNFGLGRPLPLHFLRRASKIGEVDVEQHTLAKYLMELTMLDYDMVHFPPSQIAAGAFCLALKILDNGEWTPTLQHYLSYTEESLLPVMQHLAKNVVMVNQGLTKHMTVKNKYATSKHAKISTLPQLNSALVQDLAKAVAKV
MAP2K2 (MEK2), sequence (P36507 whole entry, species assumed): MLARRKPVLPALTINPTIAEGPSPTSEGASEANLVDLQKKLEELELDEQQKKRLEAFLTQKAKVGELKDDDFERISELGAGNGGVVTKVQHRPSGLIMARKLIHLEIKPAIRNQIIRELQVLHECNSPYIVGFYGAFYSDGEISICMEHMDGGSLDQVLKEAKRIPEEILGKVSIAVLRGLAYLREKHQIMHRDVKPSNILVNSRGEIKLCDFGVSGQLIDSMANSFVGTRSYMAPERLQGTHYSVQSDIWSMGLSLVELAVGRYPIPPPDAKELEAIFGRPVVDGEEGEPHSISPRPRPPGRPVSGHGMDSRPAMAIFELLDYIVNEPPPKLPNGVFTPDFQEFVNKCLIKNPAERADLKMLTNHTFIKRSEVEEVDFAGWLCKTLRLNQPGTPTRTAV
PRKCZ (PKC zeta), sequence (Q05513 whole entry, species assumed): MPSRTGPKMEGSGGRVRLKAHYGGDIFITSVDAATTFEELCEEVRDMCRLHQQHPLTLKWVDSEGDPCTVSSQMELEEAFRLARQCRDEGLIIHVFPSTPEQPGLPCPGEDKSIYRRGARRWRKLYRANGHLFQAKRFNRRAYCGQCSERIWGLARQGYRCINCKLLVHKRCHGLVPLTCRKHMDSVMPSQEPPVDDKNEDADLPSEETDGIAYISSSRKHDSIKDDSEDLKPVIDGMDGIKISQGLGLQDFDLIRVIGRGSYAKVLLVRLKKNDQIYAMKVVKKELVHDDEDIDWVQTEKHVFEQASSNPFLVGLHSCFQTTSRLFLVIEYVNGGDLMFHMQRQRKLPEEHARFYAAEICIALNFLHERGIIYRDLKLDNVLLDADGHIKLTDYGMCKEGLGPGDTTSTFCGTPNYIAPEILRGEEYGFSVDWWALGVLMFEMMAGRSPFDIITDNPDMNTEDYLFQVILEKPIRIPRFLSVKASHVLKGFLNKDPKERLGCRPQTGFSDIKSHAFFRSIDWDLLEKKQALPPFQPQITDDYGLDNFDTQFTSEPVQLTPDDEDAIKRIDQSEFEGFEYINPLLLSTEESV
MAPK1 (ERK2), sequence (P28482 whole entry, species assumed): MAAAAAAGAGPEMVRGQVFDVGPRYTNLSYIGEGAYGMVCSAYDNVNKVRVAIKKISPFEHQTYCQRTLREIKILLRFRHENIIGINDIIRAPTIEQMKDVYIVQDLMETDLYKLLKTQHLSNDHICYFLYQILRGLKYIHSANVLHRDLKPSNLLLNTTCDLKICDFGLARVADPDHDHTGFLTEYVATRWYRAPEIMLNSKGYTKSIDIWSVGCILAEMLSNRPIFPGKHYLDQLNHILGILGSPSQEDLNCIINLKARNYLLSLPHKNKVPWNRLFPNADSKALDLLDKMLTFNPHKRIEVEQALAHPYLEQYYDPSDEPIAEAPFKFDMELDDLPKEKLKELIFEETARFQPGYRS
GSK3A (GSK3 alpha), sequence (P49840 whole entry, species assumed): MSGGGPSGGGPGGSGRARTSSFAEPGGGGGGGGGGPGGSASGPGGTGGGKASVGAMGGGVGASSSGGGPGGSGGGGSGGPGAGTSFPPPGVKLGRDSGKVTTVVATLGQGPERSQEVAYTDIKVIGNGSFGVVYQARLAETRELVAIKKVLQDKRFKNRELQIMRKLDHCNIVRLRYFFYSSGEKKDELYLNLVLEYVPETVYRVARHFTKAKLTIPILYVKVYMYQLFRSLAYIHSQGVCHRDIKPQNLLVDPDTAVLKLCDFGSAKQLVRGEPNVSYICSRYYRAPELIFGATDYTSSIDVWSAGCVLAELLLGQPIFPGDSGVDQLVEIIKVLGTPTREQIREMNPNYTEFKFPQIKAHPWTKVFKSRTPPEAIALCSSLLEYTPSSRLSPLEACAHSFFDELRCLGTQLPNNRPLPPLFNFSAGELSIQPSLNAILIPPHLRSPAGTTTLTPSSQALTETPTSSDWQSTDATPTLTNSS
BTK, sequence (Q06187 whole entry): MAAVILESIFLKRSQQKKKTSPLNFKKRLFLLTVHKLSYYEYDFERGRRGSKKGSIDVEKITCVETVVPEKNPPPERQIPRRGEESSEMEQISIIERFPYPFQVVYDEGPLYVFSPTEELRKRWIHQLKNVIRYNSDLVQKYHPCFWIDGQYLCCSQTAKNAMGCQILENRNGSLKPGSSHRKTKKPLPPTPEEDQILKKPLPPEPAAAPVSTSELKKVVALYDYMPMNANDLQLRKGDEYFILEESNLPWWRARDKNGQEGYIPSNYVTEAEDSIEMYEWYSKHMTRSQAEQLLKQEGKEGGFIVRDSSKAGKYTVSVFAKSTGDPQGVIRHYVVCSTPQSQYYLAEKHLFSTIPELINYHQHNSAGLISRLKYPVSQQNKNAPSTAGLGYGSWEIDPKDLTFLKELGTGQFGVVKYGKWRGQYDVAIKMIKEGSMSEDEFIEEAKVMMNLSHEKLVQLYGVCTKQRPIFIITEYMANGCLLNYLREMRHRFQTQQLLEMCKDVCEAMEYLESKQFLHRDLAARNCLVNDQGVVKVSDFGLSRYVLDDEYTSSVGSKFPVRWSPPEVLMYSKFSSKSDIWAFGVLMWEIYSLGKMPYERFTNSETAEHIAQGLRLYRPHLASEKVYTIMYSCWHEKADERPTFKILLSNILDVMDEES

Q: Which results are given for `O=C(CNC(=O)c1cccn(Cc2ccc(F)c(F)c2)c1=O)Nc1ccc2c(c1)/C(=C/c1cnc[nH]1)C(=O)N2` [IB35, (Z)—N-(2-((3-((1H-imidazol-5-yl)methylene)-2-oxoindolin-5-yl)amino)-2-oxoethyl)-1-(3,4-difluorobenzyl)-2-oxo-1,2-dihydro pyridine-3-carboxamide]?
A: inhibition at 0.1 µM (CHEK1 (CHK1); read-out: % Inhibition 1): 10%; inhibition at 0.1 µM (CHEK1 (CHK1); read-out: % Inhibition 2): 2%; inhibition at 0.1 µM (CHEK1 (CHK1); read-out: % Inhibition Avg): 6%; inhibition at 0.1 µM (ABL1; read-out: % Inhibition 1): 17%; inhibition at 0.1 µM (ABL1; read-out: % Inhibition 2): 12%; inhibition at 0.1 µM (ABL1; read-out: % Inhibition Avg): 14%; inhibition at 0.1 µM (GSK3A (GSK3 alpha); read-out: % Inhibition 1): 43%; inhibition at 0.1 µM (GSK3A (GSK3 alpha); read-out: % Inhibition 2): 43%; inhibition at 0.1 µM (GSK3A (GSK3 alpha); read-out: % Inhibition Avg): 43%; inhibition at 0.1 µM (CSNK1G1 (CK1 gamma 1); read-out: % Inhibition 1): 3%; inhibition at 0.1 µM (CSNK1G1 (CK1 gamma 1); read-out: % Inhibition 2): 2%; inhibition at 0.1 µM (CSNK1G1 (CK1 gamma 1); read-out: % Inhibition Avg): 3%; inhibition at 0.1 µM (CSNK2A2 (CK2 alpha 2); read-out: % Inhibition 1): 4%; inhibition at 0.1 µM (CSNK2A2 (CK2 alpha 2); read-out: % Inhibition 2): 3%; inhibition at 0.1 µM (CSNK2A2 (CK2 alpha 2); read-out: % Inhibition Avg): 3%; inhibition at 0.1 µM (PRKCB1 (PKC beta I); read-out: % Inhibition 1): -10%; inhibition at 0.1 µM (PRKCB1 (PKC beta I); read-out: % Inhibition 2): -10%; inhibition at 0.1 µM (PRKCB1 (PKC beta I); read-out: % Inhibition Avg): -10%; inhibition at 0.1 µM (BTK; read-out: % Inhibition 1): -4%; inhibition at 0.1 µM (BTK; read-out: % Inhibition 2): -2%; inhibition at 0.1 µM (BTK; read-out: % Inhibition Avg): -3%; inhibition at 0.1 µM (MAPK1 (ERK2); read-out: % Inhibition 1): 5%; inhibition at 0.1 µM (MAPK1 (ERK2); read-out: % Inhibition 2): 6%; inhibition at 0.1 µM (MAPK1 (ERK2); read-out: % Inhibition Avg): 6%; inhibition at 0.1 µM (MAPK3 (ERK1); read-out: % Inhibition 1): -8%; inhibition at 0.1 µM (MAPK3 (ERK1); read-out: % Inhibition 2): 1%; inhibition at 0.1 µM (MAPK3 (ERK1); read-out: % Inhibition Avg): -3%; inhibition at 0.1 µM (AMPK A1/B1/G1; read-out: % Inhibition 1): 8%; inhibition at 0.1 µM (AMPK A1/B1/G1; read-out: % Inhibition 2): 7%; inhibition at 0.1 µM (AMPK A1/B1/G1; read-out: % Inhibition Avg): 7%; inhibition at 0.1 µM (MARK1 (MARK); read-out: % Inhibition 1): 20%; inhibition at 0.1 µM (MARK1 (MARK); read-out: % Inhibition 2): 13%; inhibition at 0.1 µM (MARK1 (MARK); read-out: % Inhibition Avg): 17%; inhibition at 0.1 µM (AKT2 (PKB beta); read-out: % Inhibition 1): 0%; inhibition at 0.1 µM (AKT2 (PKB beta); read-out: % Inhibition 2): -9%; inhibition at 0.1 µM (AKT2 (PKB beta); read-out: % Inhibition Avg): -4%; inhibition at 0.1 µM (MAP2K1 (MEK1); read-out: % Inhibition 1): -20%; inhibition at 0.1 µM (MAP2K1 (MEK1); read-out: % Inhibition 2): -6%; inhibition at 0.1 µM (MAP2K1 (MEK1); read-out: % Inhibition Avg): -13%; inhibition at 0.1 µM (AURKA (Aurora A); read-out: % Inhibition 1): 37%; inhibition at 0.1 µM (AURKA (Aurora A); read-out: % Inhibition 2): 38%; inhibition at 0.1 µM (AURKA (Aurora A); read-out: % Inhibition Avg): 38%; inhibition at 0.1 µM (ROCK2; read-out: % Inhibition 1): 3%; inhibition at 0.1 µM (ROCK2; read-out: % Inhibition 2): 1%; inhibition at 0.1 µM (ROCK2; read-out: % Inhibition Avg): 2%; inhibition at 0.1 µM (AKT3 (PKB gamma); read-out: % Inhibition 1): 3%; inhibition at 0.1 µM (AKT3 (PKB gamma); read-out: % Inhibition 2): 1%; inhibition at 0.1 µM (AKT3 (PKB gamma); read-out: % Inhibition Avg): 2%; inhibition at 0.1 µM (GSK3B (GSK3 beta); read-out: % Inhibition 1): 23%; inhibition at 0.1 µM (GSK3B (GSK3 beta); read-out: % Inhibition 2): 25%; inhibition at 0.1 µM (GSK3B (GSK3 beta); read-out: % Inhibition Avg): 24%; inhibition at 0.1 µM (FRAP1 (mTOR); read-out: % Inhibition 1): -10%; inhibition at 0.1 µM (FRAP1 (mTOR); read-out: % Inhibition 2): -18%; inhibition at 0.1 µM (FRAP1 (mTOR); read-out: % Inhibition Avg): -14%; inhibition at 0.1 µM (CLK1; read-out: % Inhibition 1): 4%; inhibition at 0.1 µM (CLK1; read-out: % Inhibition 2): -7%; inhibition at 0.1 µM (CLK1; read-out: % Inhibition Avg): -2%; inhibition at 0.1 µM (AMPK A2/B1/G1; read-out: % Inhibition 1): 10%; inhibition at 0.1 µM (AMPK A2/B1/G1; read-out: % Inhibition 2): 11%; inhibition at 0.1 µM (AMPK A2/B1/G1; read-out: % Inhibition Avg): 10%; inhibition at 0.1 µM (CDK5/p25; read-out: % Inhibition 1): -7%; inhibition at 0.1 µM (CDK5/p25; read-out: % Inhibition 2): -10%; inhibition at 0.1 µM (CDK5/p25; read-out: % Inhibition Avg): -8%; inhibition at 0.1 µM (PRKCZ (PKC zeta); read-out: % Inhibition 1): -3%; inhibition at 0.1 µM (PRKCZ (PKC zeta); read-out: % Inhibition 2): -2%; inhibition at 0.1 µM (PRKCZ (PKC zeta); read-out: % Inhibition Avg): -3%; inhibition at 0.1 µM (CDK1/cyclin B; read-out: % Inhibition 1): 10%; inhibition at 0.1 µM (CDK1/cyclin B; read-out: % Inhibition 2): 3%; inhibition at 0.1 µM (CDK1/cyclin B; read-out: % Inhibition Avg): 6%; inhibition at 0.1 µM (BRAF; read-out: % Inhibition 1): 16%; inhibition at 0.1 µM (BRAF; read-out: % Inhibition 2): 17%; inhibition at 0.1 µM (BRAF; read-out: % Inhibition Avg): 17%; inhibition at 0.1 µM (MAP2K2 (MEK2); read-out: % Inhibition 1): 13%; inhibition at 0.1 µM (MAP2K2 (MEK2); read-out: % Inhibition 2): 6%; inhibition at 0.1 µM (MAP2K2 (MEK2); read-out: % Inhibition Avg): 9%; inhibition at 0.1 µM (PRKCE (PKC epsilon); read-out: % Inhibition 1): 4%; inhibition at 0.1 µM (PRKCE (PKC epsilon); read-out: % Inhibition 2): 3%; inhibition at 0.1 µM (PRKCE (PKC epsilon); read-out: % Inhibition Avg): 3%; inhibition at 0.1 µM (CDK2/cyclin A; read-out: % Inhibition 1): -1%; inhibition at 0.1 µM (CDK2/cyclin A; read-out: % Inhibition 2): 8%; inhibition at 0.1 µM (CDK2/cyclin A; read-out: % Inhibition Avg): 4%
